Test results from patent publication US11129782B2, “Derivatives of PPD useful for coloring hair and skin” (National University of Singapore, priority 2017, dated 2021).

Tests used:
HaCaT cells = assay: In vitro cell cytotoxicity (MTT) assay on HaCaT cells; assay type: cell-based, human; settings: Homo sapiens, HaCaT; 72 h incubation; MTT
Outline: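 HaCaT keratinocytes seeded at 5×10^3/well, after 24 h exposed 72 h to test compounds serially diluted from 500 μM to 1.9 μM in 10% FBS DMEM. MTT (1 mg/ml, 4 h) read at 570 nm; viability expressed as percent of untreated control.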

[1] = tested on: cysteine peptide (Ac-RFAACAA-COOH); assay: Direct Peptide Reactivity Assay, cysteine peptide; settings: for % of Cysteine depletion, Avg / % of Cysteine depletion, Rep 2 / % of Cysteine depletion, Rep 3 / Reactivity Class: 1:10; for % of Cysteine depletion, Rep 1: peptide 0.02 mM : test chemical 0.2 mM (1:10); for Reactivity Class: cysteine
Description: For cysteine DPRA, an additional step was performed.
The mass spectrometric analysis was performed by use of a AB SCIEX QTRAP 5500 tandem mass spectrometry (MS/MS) system (AB SCIEX, Framingham, Mass., USA) operating in triple quadrupole positive mode (ESI+) equipped with an AB Sciex Turbo Ion Spray interface. Acquisition and analysis of data were performed with Analyst software ver. 1.6.2 (Applied Biosystems).

IL-8 = IL-8 ELISA on THP-1 cell supernatants; assay type: cell-based, human; settings: preliminary ELISA, CV75
Description: For cytokine profiling in THP-1, supernatants from wells were collected and then used for cytokine analysis by a Chemokine immunosorbent assay Bio-legend ELISA Max kit. The levels of available IL-8 protein from THP-1 cell supernatants was estimated using this kit which are regulated upon activation of THP-1 model. Surface receptor expression of human CD-86, CD-54, MHC-I and IL-T3 were analyzed by flow cytometry using standard BD FACS analyzer with PE and FITC fluorescent labeled antibodies from Biolegend and e Bioscience.
In order to understand the effect of modified PPD hairdyes on THP-1 immune sensitization, a certain degree of Cytotoxicity at CV75% viable where 25% cell death is required before evaluation of supernatants in THP-1 models for expression of cytokine IL-8 and receptor expression of CD86, CD54, MHC-I and IL-T3 surface receptors upon treatment with standard PPD and modified hair dye compounds. Most allergens show a specific dose-dependent alteration of CD86 and/or CD54 expression or secretion of cytokine profiles. But depending on chemical, the alteration pattern may vary.

[2] = Oxidation stability of 1% PPD patch test formulation in paraffin (mass spectrometry); assay type: physicochemical; settings: several days in air
Excerpt: (§1) This is true even after 2 days of patch test as the test field remains colourless.

sensitized patients = assay: Patch test with 1% PPD formulation in paraffin; assay type: in vivo, human; settings: 1% PPD patch test formulation in paraffin
Excerpt: as §1
Thus there remains a need for hair and temporary skin colourings that avoid such allergic responses and may be suitable for use in subjects who show sensitivity to conventional colouring materials.

[3] = tested on: cysteine and lysine peptides; assay: Direct Peptide Reactivity Assay, mean of cysteine and lysine depletion (FIG. 12)
Description: Direct reactivity of test chemical to lysine-based synthetic peptide was determined in reactions containing 100 mM ammonium acetate buffer (pH 10.2). The final concentration of lysine peptide was 20 μM in a final reaction volume of 0.3 ml. Direct reactivity of test chemicals to cysteine-based synthetic peptide was determined in 100 mM Sodium Phosphate buffer of pH 7.5.
For the DPRA, incubation mixtures were prepared using each peptide to test compound ratios of both 1:10 for cysteine peptide and 1:50 for lysine peptide, according to Table 19. […] Sample reactions were initiated by adding 3 μl of a test chemical stock solution for cysteine and 15 μl stock solution for lysine peptide. These mixtures were then placed in a temperature-controlled shaking incubator at 25° C.
At each time point (20 mins/24 hours), the incubation mixtures were quenched with 75 μL of 95% ACN/H2O, and mildly vortexed (600 rpm, 3 seconds). For Lysine DPRA experiment, 10 μl of aliquot was diluted with 2% ACN/H2O, vortexed and stored at −80° C. until analysis by LC-MS/MS. For cysteine DPRA, an additional step was performed. 10 μl of cysteine reaction mixture, at time points 20 min and 24 h were diluted in 180 μl of 2% ACN/H2O. To which, a 10 μl aliquot of a 16 mM dithiothreitol solution (prepared in water) was then added, and samples were heated in a 45° C. oven for 30 min, then allowed to cool to room temperature prior to analysis. The peptide depletion (PD) percentage was obtained using this equation.

In the case of `Nc1ccc(N)cc1` [PPD, para-phenylenediamine, reference compound], the IC50 (HaCaT cells) is reported as 23.5 µM, the “% of Cysteine depletion, Avg” value ([1]; 20 min) is reported as 15.1% and the “% of Cysteine depletion, Rep 2” value ([1]; 20 min) is reported as 14%. The “% of Cysteine depletion, Rep 3” value ([1]; 20 min) was 15.2%, the “% of Cysteine depletion, Rep 1” value ([1]; 20 min) was 16.2% and the “% of Cysteine depletion, Avg” value ([1]; 24 h) was 77.6%. For the same compound, the “% of Cysteine depletion, Rep 2” value ([1]; 24 h) was 78%, the “% of Cysteine depletion, Rep 3” value ([1]; 24 h) was 77.2% and the “% of Cysteine depletion, Rep 1” value ([1]; 24 h) was 77.7%. For the same compound, the “Reactivity Class” value ([1]; 20 min) was “low and Low”, the “Reactivity Class” value ([1]; 24 h) was “High” and the IL-8 expression (IL-8) was “increased expression”. The “Oxidation stability in paraffin” value [2] was “protected against oxidation”, the “Skin reaction of sensitized patients” value (sensitized patients) was “clear localised contact dermatitis” and the “Sensitizing potential predicted from mean peptide depletion” value ([3]; cysteine 1:10 / lysine 1:50 model) was “strong sensitizer”. The Mean peptide depletion ([3]; mean of cysteine (1:10) and lysine (1:50), FIG. 12) was 55.5%.
